Results as given in ChEMBL document CHEMBL5046296 (J Med Chem, 2022).
Calls of active or inactive are those of the source. The calls are words filed in the database; no cut-off is given here.

Columns and labels:
Cytochrome P450 1A2 = Cytochrome P450 1A2 (Homo sapiens, UniProt P05177); assay: Inhibition of CYP1A2 (unknown origin); type: ADME
[1] = Drug concentration in naive Sprague-Dawley rat spinal cord at 10 mg/kg, po measured at 5.25 hrs post dose; type: ADME, organism-based; details: read-out: Ct
[2] = target: Citron Rho-interacting kinase (Homo sapiens, UniProt O14578); assay: Inhibition of CRIK (unknown origin)
[3] = Cmax in monkey at 3 mg/kg, po; type: ADME, organism-based, Macaca mulatta; set-up: route oral, dose 3 mg/kg; details: rhesus monkey, in vivo
[4] = target: Organic anion transporter 3 (Homo sapiens, UniProt Q8TCC7); assay: Inhibition of OAT3 (unknown origin)
Cytochrome P450 3A4 [5] = target: T1, Cytochrome P450 3A4 (Homo sapiens, UniProt P08684); assay: Time dependent inhibition of CYP3A4 (unknown origin) using BSF as substrate measured at 5 mins; type: ADME
[6] = MRT in rat at 2 mg/kg, iv; type: ADME, organism-based; details: in vivo
[7] = Ratio of drug concentration in spinal cord to plasma in Sprague-Dawley rat at 30 mg/kg, po measured at 5.25 hrs post dose; type: ADME, organism-based
[8] = Permeability across basolateral to apical side in human Caco-2 cells at 3 uM measured after 2 hrs by LC-MS/MS analysis; type: ADME, cell-based; details: read-out: permeability
Rattus norvegicus [9] = assay: Analgesic activity in CCI induced thermal hyperalgesia in Sprague-Dawley rat assessed as reversal of thermal hyperalgesia by measuring reduction in paw withdrawal latency at 1 mg/kg, po measured after 5.5 hrs by Hargreaves test relative to control; type: functional; set-up: scale not given: the % may be the effect or the level left
[10] = Permeability of compound at pH 7.4 measured after 4 hrs by PAMPA assay; type: ADME; details: read-out: permeability
[11] = Solubility of the compound in PEG400; type: physicochemical
[12] = MRT in monkey at 2 mg/kg, iv; type: ADME, organism-based, Macaca mulatta; details: rhesus monkey, in vivo
Bile salt export pump = Bile salt export pump (Homo sapiens, UniProt O95342); assay: Inhibition of BSEP (unknown origin)
[13] = Tmax in monkey at 3 mg/kg, po; type: ADME, organism-based, Macaca mulatta; details: rhesus monkey, in vivo
[14] = AUC (infinity) in mouse at 2 mg/kg, iv; type: ADME, organism-based; set-up: time infinity, route intravenous, dose 2 mg/kg; details: in vivo
[15] = Drug uptake in Spinal cord of CCI induced thermal hyperalgesia Sprague-Dawley rat model assessed as spinal occupancy at 0.3 mg/kg, po measured at 5.75 hrs post dose in presence of [3H]BMT-046091; type: ADME, organism-based; details: in vivo
[16] = Displacement of 3H-LP-927443 from AAK1 in mouse brain membrane homogenate assessed as inhibition constant at 1 uM incubated for 1 hr by liquid scintillation counter analysis; type: cell membranes
[17] = Cmax in mouse at 3 mg/kg, po; type: ADME, organism-based; set-up: route oral, dose 3 mg/kg; details: in vivo
Rattus norvegicus [18] = assay: Analgesic activity in CCI induced thermal hyperalgesia in Sprague-Dawley rat assessed as reversal of thermal hyperalgesia by measuring reduction in paw withdrawal latency at 0.3 mg/kg, po measured after 5.5 hrs by Hargreaves test relative to control; type: functional; set-up: scale not given: the % may be the effect or the level left
Rattus norvegicus [19] = assay: Analgesic activity in CCI induced thermal hyperalgesia Sprague-Dawley rat model assessed as efficacy at 1 mg/kg, po measured at 5.75 hrs post dose; type: functional
[20] = Clearance in dog at 2 mg/kg, iv; type: ADME, organism-based, Canis lupus familiaris; details: in vivo
Cytochrome P450 2D6 = Cytochrome P450 2D6 (Homo sapiens, UniProt P10635); assay: Inhibition of CYP2D6 (unknown origin); type: ADME
[21] = Protein binding in dog plasma assessed as unbound fraction at 10 uM incubated for 5 hrs by LC-MS/MS analysis; type: ADME, cell-free, Canis lupus familiaris
Cytochrome P450 3A4 [22] = target: T1, Cytochrome P450 3A4; assay: Inhibition of CYP3A4 (unknown origin) using BFC as substrate; type: ADME
[23] = target: AP2-associated protein kinase 1 (Homo sapiens, UniProt Q2M2I8); assay: Inhibition of […] in HEK293F cells assessed as reduction in phospho mu2 formation incubated for 3 hrs by Western blot analysis; type: cell-based
Rattus norvegicus [24] = assay: Analgesic activity in CCI induced thermal hyperalgesia Sprague-Dawley rat model assessed as efficacy at 0.1 mg/kg, po measured at 5.75 hrs post dose; type: functional
[25] = AUC (infinity) in rat at 3 mg/kg, po; type: ADME, organism-based; set-up: route oral, time infinity, dose 3 mg/kg; details: in vivo
[26] = Ratio of drug concentration in spinal cord to plasma in CCI induced thermal hyperalgesia Sprague-Dawley rat model at 0.1 mg/kg, po measured at 5.75 hrs post dose; type: ADME, organism-based
Rattus norvegicus [27] = assay: Analgesic activity in streptozotocin induced diabetic peripheral neuropathic mechanical allodynia in overnight fasted Sprague-Dawley rat model assessed as reduction in pain response at 0.3 mg/kg, po measured after 5.5 hrs post treatment; type: functional; set-up: scale not given: the % may be the effect or the level left
[28] = Metabolic stability in rat liver microsomes assessed as CYP450-mediated metabolism by measuring parent compound remaining at 0.5 uM incubated for 10 mins in presence of NADPH by LC-MS/MS analysis; type: ADME; details: read-out: Stability
[29] = Ratio of drug concentration in spinal cord to plasma in CCI induced thermal hyperalgesia Sprague-Dawley rat model at 0.3 mg/kg, po measured at 5.75 hrs post dose; type: ADME, organism-based
Rattus norvegicus [30] = assay: Analgesic activity in streptozotocin induced diabetic peripheral neuropathic mechanical allodynia in overnight fasted Sprague-Dawley rat model assessed as efficacy at 0.3 mg/kg, po measured at 5.5 hrs post dose; type: functional
[31] = Solubility of the compound in acetate at pH 4.6 using crystalline form of sample; type: physicochemical
[32] = Metabolic stability in rat liver microsomes assessed as half life; type: ADME, Microsome
[33] = Drug concentration in overnight fasted Sprague-Dawley rat spinal cord with streptozotocin induced diabetic peripheral neuropathic mechanical allodynia at 1 mg/kg, po measured at 5.5 hrs post dose; type: ADME, organism-based; details: read-out: Ct
[34] = Volume of distribution at steady state in mouse at 2 mg/kg, iv; type: ADME, organism-based; details: in vivo, read-out: Vdss
[35] = Metabolic stability in cynomolgus monkey liver microsomes assessed as half life; type: ADME, Macaca fascicularis, Microsome
Cytochrome P450 2B6 = Cytochrome P450 2B6 (Homo sapiens, UniProt P20813); assay: Inhibition of CYP2B6 (unknown origin); type: ADME
[36] = target: MAP kinase-interacting serine/threonine-protein kinase 2 (Homo sapiens, UniProt Q9HBH9); assay: Inhibition of MNK2 (unknown origin)
[37] = Ratio of drug concentration in spinal cord to plasma in Sprague-Dawley rat at 10 mg/kg, po measured at 5.25 hrs post dose; type: ADME, organism-based
[38] = target: ATP-binding cassette sub-family C member 2 (Homo sapiens, UniProt Q92887); assay: Inhibition of MRP2 (unknown origin)
Rattus norvegicus [39] = assay: Analgesic activity in streptozotocin induced diabetic peripheral neuropathic mechanical allodynia in overnight fasted Sprague-Dawley rat model assessed as efficacy at 0.1 mg/kg, po measured at 5.5 hrs post dose; type: functional
Cytochrome P450 3A4 [40] = target: T1, Cytochrome P450 3A4; assay: Time dependent inhibition of CYP3A4 (unknown origin) using TST as substrate measured at 30 mins; type: ADME
[41] = Drug uptake in Spinal cord of CCI induced thermal hyperalgesia Sprague-Dawley rat model assessed as spinal occupancy at 0.1 mg/kg, po measured at 5.75 hrs post dose in presence of [3H]BMT-046091; type: ADME, organism-based; details: in vivo
[42] = Drug concentration in overnight fasted Sprague-Dawley rat spinal cord with streptozotocin induced diabetic peripheral neuropathic mechanical allodynia at 3 mg/kg, po measured at 5.5 hrs post dose; type: ADME, organism-based; details: read-out: Ct
[43] = Apparent elimination half life in rat at 2 mg/kg, iv; type: ADME, organism-based; details: in vivo, read-out: betat1/2(app) (converted)

T1 sequence (P08684 whole entry): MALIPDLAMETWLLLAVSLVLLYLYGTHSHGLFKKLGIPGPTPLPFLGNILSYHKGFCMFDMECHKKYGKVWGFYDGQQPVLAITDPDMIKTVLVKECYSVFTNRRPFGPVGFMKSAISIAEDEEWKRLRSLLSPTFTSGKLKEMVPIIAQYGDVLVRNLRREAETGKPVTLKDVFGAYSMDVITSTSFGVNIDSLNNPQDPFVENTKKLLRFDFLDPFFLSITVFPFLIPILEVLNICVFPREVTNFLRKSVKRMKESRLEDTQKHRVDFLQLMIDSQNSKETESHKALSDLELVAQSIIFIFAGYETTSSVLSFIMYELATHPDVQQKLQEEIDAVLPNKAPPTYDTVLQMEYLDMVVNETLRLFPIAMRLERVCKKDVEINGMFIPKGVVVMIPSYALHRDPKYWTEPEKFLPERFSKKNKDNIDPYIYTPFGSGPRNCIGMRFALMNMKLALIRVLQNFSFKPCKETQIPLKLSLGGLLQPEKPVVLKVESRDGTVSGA
Sequence of Cytochrome P450 2D6 (P10635 whole entry): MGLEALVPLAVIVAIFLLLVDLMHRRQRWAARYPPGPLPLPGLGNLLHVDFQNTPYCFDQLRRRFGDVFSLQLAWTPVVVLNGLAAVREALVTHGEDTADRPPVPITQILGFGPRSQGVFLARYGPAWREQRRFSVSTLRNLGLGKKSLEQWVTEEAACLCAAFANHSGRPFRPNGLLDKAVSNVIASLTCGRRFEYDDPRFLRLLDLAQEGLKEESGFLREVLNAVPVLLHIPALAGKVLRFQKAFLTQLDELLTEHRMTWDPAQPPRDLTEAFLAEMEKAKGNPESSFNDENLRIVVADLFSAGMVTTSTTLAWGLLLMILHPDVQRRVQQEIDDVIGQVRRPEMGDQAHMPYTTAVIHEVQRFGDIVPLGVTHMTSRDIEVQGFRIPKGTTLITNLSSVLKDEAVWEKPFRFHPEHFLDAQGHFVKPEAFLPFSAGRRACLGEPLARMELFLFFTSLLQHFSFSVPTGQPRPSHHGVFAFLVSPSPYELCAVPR
Sequence of Organic anion transporter 3 (Q8TCC7 whole entry): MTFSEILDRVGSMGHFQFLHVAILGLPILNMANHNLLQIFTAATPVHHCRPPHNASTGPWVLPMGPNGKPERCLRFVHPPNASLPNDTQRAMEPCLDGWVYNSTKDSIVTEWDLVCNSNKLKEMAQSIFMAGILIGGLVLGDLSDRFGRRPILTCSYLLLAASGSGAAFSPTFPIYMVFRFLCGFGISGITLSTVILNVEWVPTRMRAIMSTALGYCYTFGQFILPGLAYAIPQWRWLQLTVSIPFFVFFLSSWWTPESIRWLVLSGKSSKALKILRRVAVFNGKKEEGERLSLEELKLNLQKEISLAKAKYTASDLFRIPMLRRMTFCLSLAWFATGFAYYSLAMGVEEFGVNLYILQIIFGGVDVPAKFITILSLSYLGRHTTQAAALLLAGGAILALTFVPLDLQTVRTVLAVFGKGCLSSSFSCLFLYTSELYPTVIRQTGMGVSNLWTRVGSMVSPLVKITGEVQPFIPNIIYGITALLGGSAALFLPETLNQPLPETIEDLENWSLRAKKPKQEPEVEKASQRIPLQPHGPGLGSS
Sequence of ATP-binding cassette sub-family C member 2 (Q92887 whole entry): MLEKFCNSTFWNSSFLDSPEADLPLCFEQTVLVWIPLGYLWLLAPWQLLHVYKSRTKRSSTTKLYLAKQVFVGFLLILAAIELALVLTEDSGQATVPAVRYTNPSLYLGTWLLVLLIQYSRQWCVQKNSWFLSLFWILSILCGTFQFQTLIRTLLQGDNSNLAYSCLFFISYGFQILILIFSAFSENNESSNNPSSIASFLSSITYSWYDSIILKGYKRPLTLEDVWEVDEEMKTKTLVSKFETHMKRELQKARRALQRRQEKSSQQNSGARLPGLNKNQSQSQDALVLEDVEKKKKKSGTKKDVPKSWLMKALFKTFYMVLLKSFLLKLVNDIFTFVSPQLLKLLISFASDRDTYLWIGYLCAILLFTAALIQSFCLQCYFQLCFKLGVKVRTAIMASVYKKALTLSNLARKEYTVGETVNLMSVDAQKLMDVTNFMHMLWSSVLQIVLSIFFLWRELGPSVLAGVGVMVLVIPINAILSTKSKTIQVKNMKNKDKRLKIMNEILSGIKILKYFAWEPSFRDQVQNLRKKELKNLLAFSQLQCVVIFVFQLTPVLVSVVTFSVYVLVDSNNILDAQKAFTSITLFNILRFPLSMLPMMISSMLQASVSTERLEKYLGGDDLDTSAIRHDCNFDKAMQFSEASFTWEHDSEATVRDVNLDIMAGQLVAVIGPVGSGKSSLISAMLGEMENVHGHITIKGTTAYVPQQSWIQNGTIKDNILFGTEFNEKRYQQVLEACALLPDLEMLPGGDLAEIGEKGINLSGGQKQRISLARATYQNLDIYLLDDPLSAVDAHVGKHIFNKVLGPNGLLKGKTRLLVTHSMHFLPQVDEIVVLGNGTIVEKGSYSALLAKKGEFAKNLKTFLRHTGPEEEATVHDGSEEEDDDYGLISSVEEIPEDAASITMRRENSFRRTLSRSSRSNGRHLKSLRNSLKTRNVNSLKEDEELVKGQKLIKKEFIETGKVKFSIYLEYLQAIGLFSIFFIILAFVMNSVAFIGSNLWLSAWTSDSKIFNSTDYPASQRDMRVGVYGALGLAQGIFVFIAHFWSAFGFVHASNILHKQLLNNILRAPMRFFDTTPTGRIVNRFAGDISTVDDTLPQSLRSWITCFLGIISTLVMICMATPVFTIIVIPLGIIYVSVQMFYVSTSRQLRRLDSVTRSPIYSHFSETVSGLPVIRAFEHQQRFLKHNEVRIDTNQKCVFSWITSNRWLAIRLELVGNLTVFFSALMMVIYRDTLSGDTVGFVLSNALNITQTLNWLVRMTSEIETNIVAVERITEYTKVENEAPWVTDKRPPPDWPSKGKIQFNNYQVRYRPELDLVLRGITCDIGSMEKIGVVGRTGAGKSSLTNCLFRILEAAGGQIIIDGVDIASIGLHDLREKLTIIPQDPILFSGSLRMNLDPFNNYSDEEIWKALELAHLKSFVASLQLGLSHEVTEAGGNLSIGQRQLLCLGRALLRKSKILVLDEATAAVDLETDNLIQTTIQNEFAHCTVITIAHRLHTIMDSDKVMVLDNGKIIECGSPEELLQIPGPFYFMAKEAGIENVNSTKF
Sequence of Citron Rho-interacting kinase (O14578 whole entry): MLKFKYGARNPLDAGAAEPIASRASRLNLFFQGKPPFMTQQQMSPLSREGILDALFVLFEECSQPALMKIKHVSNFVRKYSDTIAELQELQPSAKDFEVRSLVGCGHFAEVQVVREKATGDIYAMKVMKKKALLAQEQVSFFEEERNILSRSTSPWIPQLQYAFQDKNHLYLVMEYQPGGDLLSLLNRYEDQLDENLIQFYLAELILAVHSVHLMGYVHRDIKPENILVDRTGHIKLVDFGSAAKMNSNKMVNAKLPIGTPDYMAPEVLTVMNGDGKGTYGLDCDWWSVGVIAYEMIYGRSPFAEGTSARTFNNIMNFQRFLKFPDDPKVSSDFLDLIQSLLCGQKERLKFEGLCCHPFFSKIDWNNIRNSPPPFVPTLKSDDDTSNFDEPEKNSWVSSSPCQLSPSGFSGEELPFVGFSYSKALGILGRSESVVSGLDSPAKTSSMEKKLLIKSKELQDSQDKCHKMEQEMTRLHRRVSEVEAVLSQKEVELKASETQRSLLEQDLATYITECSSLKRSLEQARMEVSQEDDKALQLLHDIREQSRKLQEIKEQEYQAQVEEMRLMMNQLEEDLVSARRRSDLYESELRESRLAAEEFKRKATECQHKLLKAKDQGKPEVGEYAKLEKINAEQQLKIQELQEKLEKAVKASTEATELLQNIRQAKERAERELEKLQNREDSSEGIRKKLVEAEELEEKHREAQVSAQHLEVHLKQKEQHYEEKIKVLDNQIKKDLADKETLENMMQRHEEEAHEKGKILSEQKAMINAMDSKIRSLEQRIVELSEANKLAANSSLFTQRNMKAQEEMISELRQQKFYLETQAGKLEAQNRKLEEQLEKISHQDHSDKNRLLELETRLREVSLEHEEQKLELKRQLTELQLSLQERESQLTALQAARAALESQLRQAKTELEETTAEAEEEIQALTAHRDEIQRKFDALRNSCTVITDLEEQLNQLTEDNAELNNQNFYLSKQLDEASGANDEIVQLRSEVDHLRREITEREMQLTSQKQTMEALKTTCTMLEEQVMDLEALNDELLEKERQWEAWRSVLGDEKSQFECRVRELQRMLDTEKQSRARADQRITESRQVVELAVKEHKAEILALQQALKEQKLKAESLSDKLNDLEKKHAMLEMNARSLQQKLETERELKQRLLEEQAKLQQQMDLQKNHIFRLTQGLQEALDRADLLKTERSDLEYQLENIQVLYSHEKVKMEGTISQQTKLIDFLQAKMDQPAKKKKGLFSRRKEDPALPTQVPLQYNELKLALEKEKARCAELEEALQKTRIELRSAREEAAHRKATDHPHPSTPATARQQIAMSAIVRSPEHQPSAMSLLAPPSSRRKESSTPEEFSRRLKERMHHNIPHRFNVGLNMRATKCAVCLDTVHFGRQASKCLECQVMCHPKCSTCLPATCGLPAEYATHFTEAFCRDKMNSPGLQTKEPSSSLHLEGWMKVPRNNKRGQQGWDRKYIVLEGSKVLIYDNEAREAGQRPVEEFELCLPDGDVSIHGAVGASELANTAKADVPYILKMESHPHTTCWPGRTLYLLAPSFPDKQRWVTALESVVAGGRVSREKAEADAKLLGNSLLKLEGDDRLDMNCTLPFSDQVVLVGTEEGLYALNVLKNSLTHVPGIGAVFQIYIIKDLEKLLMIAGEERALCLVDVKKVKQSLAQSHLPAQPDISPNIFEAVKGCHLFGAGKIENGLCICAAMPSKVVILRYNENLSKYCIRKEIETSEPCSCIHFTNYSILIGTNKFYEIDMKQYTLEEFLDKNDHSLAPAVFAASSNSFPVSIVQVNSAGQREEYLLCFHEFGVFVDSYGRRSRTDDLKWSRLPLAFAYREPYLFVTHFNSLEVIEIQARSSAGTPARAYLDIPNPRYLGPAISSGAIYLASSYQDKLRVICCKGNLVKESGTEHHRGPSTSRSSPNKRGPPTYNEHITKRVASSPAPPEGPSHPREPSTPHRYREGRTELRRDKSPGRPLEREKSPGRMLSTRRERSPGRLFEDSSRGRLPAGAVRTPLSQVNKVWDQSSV

CC(C)C[C@](C)(N)COc1ccc(-c2ccnc(C(F)F)c2)nc1C(F)F [PILAVAPADIN]
IC50 (Cytochrome P450 1A2): > 20 µM | concentration at 5.25 h [1]: 16100 nM | IC50 [2]: 0.41 µM | Cmax [3]: 20 ng/mL | IC50 [4]: > 30 µM | IC50 (Cytochrome P450 3A4 [5]): > 20 µM | MRT [6]: 11.6 h | Kp at 5.25 h [7]: 20 | Papp B→A at 2 h, 3 µM [8]: 13.8 ×10⁻⁶ cm/s | Activity (Rattus norvegicus [9]): 97% | Papp at 4 h [10]: 72.4 ×10⁻⁶ cm/s | solubility [11]: > 50 mg/mL | MRT [12]: 8.5 h | IC50 (Bile salt export pump): > 30 µM | Tmax [13]: 4 h | AUC(0-inf) [14]: 6710 ng·h/mL | Occ [15]: 83% | Ki [16]: 0.00031 µM | Cmax [17]: 260 ng/mL | Activity (Rattus norvegicus [18]): 25% | Efficacy (Rattus norvegicus [19]): 97% | clearance [20]: 28.5 mL/min/kg | IC50 (Cytochrome P450 2D6): > 20 µM | fraction unbound at 5 h, 10 µM [21]: 0.04 | IC50 (Cytochrome P450 3A4 [22]): > 20 µM | IC50 [23]: 0.002 µM | Efficacy (Rattus norvegicus [24]): 25% | AUC(0-inf) [25]: 880 ng·h/mL | Kp at 5.75 h [26]: 43 | Activity (Rattus norvegicus [27]): 20% | remaining at 10 min, 0.5 µM [28]: 92% | Kp at 5.75 h [29]: 23 | Efficacy (Rattus norvegicus [30]): 20% | solubility thermodynamic [31]: > 10 mg/mL | half-life [32]: > 2 h | concentration at 5.5 h [33]: 852 nM | Vd [34]: 19 L/kg | half-life [35]: 0.212 h | IC50 (Cytochrome P450 2B6): > 20 µM | inhibition [36]: Active | Kp at 5.25 h [37]: 21 | IC50 [38]: > 30 µM | Efficacy (Rattus norvegicus [39]): 20% | IC50 (Cytochrome P450 3A4 [40]): > 40 µM | Occ [41]: 37% | concentration at 5.5 h [42]: 2370 nM | half-life [43]: 8.7 h
